Among the test systems are A549; SNB-19; OVCAR-4; OVCAR-8; SK-MEL-28; COLO 205; MDA-N; MOLT-4; SN12C; NCI-H460; U-251; SF-268; M14; PC-3; ACHN; UACC-257; BT-549; RPMI-8226; LOX IMVI.
Holding throughout (experiment): NCI anticancer screen, dose series, 48 h

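Step 1: Grow cells in 96-well plates. Step 2: Expose to compound for 48 hours at 5 concentrations. Step 3: Interpolate endpoints linearly; if unreached, use highest concentration. GI50 = concentration required for 50% inhibition of growth.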 Active and inactive are the calls of the source. Cut-off read from the data, not from the text of the source: active = GI50 up to about 1.1 µM and inactive = higher. Where only a bound is given, the exact number is not on record here.

Take `Cc1c(Cc2ccccc2)n(C(C)OCCN(OC(=O)Oc2ccccc2)C(=O)Oc2ccccc2)c(=O)[nH]c1=O` (stereo not drawn): the GI50 was 25.2 µM (inactive) in the test on A549; 25.1 µM (inactive) with SNB-19; 19.7 µM (inactive) in the test on OVCAR-4; 16.9 µM (inactive) with OVCAR-8; 21.3 µM (inactive) with SK-MEL-28; 18.3 µM (inactive) in the test on COLO 205. Besides, the GI50 in the test with MDA-N was 19.3 µM (inactive); with MOLT-4, 14.5 µM (inactive); in the test with SN12C it was 19.8 µM (inactive); with NCI-H460, 17.8 µM (inactive); in the test on U-251, 19 µM (inactive); in the test with SF-268, 14.7 µM (inactive). Besides, the GI50 in the test on M14 is 16.1 µM (inactive); with PC-3, 21.9 µM (inactive); in the test on ACHN, 26.3 µM (inactive); in the test with UACC-257, 15 µM (inactive); with BT-549, 17.1 µM (inactive); with RPMI-8226, 24.2 µM (inactive).
In the case of `CC(=O)N(C(C)=O)n1c(-c2ccccc2)n[nH]c1=O`, the GI50 in the test on A549, with SNB-19, in the test with OVCAR-4, with OVCAR-8, in the test on SK-MEL-28 and in the test with COLO 205 was > 100 µM (inactive) throughout. Further, the GI50 in the test on MDA-N, in the test with MOLT-4, in the test with SN12C, in the test with U-251, with SF-268 and with M14 was > 100 µM (inactive) throughout. Also, the GI50 with PC-3, in the test on LOX IMVI, in the test on ACHN, in the test on UACC-257, in the test on BT-549 and with RPMI-8226 was > 100 µM (inactive) throughout.
For `CN(C)/N=N/c1nc2c(c(=O)n(C)c(=O)n2C)n1CC1CO1` (stereo not drawn), the GI50 in the test on A549 was 20 µM (inactive); in the test with SNB-19, 19.9 µM (inactive); in the test on OVCAR-4, 15.7 µM (inactive); in the test with OVCAR-8, 14.5 µM (inactive); with SK-MEL-28, 20.7 µM (inactive); in the test on COLO 205, 14.3 µM (inactive). For the same molecule, the GI50 is 19.9 µM (inactive) with MDA-N; 12.3 µM (inactive) in the test with MOLT-4; 15.7 µM (inactive) in the test on SN12C; 10.1 µM (inactive) with NCI-H460; 12.5 µM (inactive) with U-251; 11.6 µM (inactive) with SF-268. The GI50 in the test on M14 is 15.8 µM (inactive); in the test with PC-3, 20.7 µM (inactive); with LOX IMVI, 8.43 µM (inactive); in the test with ACHN, 10.8 µM (inactive); in the test on UACC-257, 16.6 µM (inactive); in the test with BT-549, 17.1 µM (inactive). Further, in the test on RPMI-8226, the GI50 is 23.8 µM (inactive).
Regarding `CNC(=O)N(CCC#N)CCN(CCN(C(=O)NC)c1ccccc1)C(=O)NC`, the GI50 in the test on A549, in the test on SNB-19, in the test on OVCAR-4, with OVCAR-8, in the test on SK-MEL-28 and in the test on COLO 205 was > 100 µM (inactive) each time. Also, the GI50 in the test on MDA-N, with MOLT-4, with SN12C, in the test on NCI-H460, in the test with U-251 and in the test on M14 was > 100 µM (inactive) in each case. For the same molecule, the GI50 in the test on PC-3, with LOX IMVI, in the test on ACHN, with UACC-257, in the test with BT-549 and in the test on RPMI-8226 was > 100 µM (inactive) each time.
Take `CC1(C)CC2C(/C1=N/O)C1(C)CCCC2(C)C1O` (stereo not drawn): the GI50 in the test with A549, in the test on SNB-19, in the test with OVCAR-4, in the test on OVCAR-8, in the test with SK-MEL-28 and with COLO 205 was > 100 µM (inactive) each time. Also, the GI50 with MDA-N, in the test on MOLT-4, in the test with SN12C, in the test with NCI-H460, in the test with U-251 and in the test on SF-268 was > 100 µM (inactive) in each case. Besides, the GI50 in the test on M14, in the test with PC-3, in the test on LOX IMVI, with ACHN, with UACC-257 and with BT-549 was > 100 µM (inactive) in each case. Besides, the GI50 in the test with RPMI-8226 is > 100 µM (inactive).
`CC(=O)N1C(Nc2cnc3ccccc3c2)CCN1c1ccccc1` (stereo not drawn): the GI50 in the test on A549, in the test on SNB-19, with OVCAR-4, with OVCAR-8, in the test with SK-MEL-28 and with COLO 205 was > 10 µM (inactive) in each case. The GI50 in the test with MDA-N, with MOLT-4, in the test on SN12C, in the test with NCI-H460, in the test with SF-268 and in the test with M14 was > 10 µM (inactive) throughout. Further, the GI50 in the test with PC-3 was > 10 µM (inactive); in the test on LOX IMVI, 5.65 µM (inactive); in the test with ACHN, 9.57 µM (inactive); with UACC-257, > 10 µM (inactive); in the test with BT-549 it was > 10 µM (inactive); with RPMI-8226, > 10 µM (inactive).
On to `CC1=C(C(=O)OC(C)C)C(c2ccccc2C(F)(F)F)C(C(=O)OC(CO[N+](=O)[O-])CO[N+](=O)[O-])=C(C)N1` (stereo not drawn), for which the GI50 with A549 was 3.92 µM (inactive); in the test with SNB-19, 14.7 µM (inactive); with OVCAR-4, 5.3 µM (inactive); with OVCAR-8 it was 8.13 µM (inactive); in the test with SK-MEL-28 it was 16.8 µM (inactive); with COLO 205, 10.2 µM (inactive). Further, the GI50 in the test with MDA-N was 4.61 µM (inactive); in the test on MOLT-4 it was 2.17 µM (inactive); in the test with SN12C, 4.09 µM (inactive); in the test on NCI-H460, 5.19 µM (inactive); with U-251 it was 8.26 µM (inactive); in the test with SF-268 it was 8.63 µM (inactive). Besides, the GI50 with M14 is 6.98 µM (inactive); in the test on PC-3 it was 2.56 µM (inactive); in the test with LOX IMVI, 4.61 µM (inactive); in the test on ACHN, 4.79 µM (inactive); in the test with UACC-257 it was 6.34 µM (inactive); with BT-549, 5.11 µM (inactive). Also, the GI50 with RPMI-8226 was 3.94 µM (inactive).
On to `Cc1cccc(Nc2nc(NNC(=O)Cc3ccccc3)nc(NNC(=O)c3ccncc3)n2)c1`, for which the GI50 in the test on A549, with SNB-19, in the test on OVCAR-4, in the test on OVCAR-8, in the test on SK-MEL-28 and in the test on COLO 205 was > 10 µM (inactive) in each case. The GI50 with MDA-N, in the test with MOLT-4, in the test with SN12C, with NCI-H460, in the test with SF-268 and in the test on M14 was > 10 µM (inactive) each time. In addition, the GI50 with PC-3, with LOX IMVI, in the test on ACHN, in the test with UACC-257, in the test on BT-549 and in the test with RPMI-8226 was > 10 µM (inactive) each time.
As for `CC(C)(C)OC(=O)[N+](=N)C(=O)C1CCC(=O)N1C(=O)OCc1ccccc1` (stereo not drawn), the GI50 in the test with A549, with SNB-19, in the test with OVCAR-4, with OVCAR-8, in the test on SK-MEL-28 and with COLO 205 was > 100 µM (inactive) each time. Besides, the GI50 in the test on MDA-N, in the test on MOLT-4, in the test on SN12C, with NCI-H460, in the test on U-251 and with SF-268 was > 100 µM (inactive) in each case. Also, the GI50 in the test with M14, in the test on PC-3, in the test on LOX IMVI, in the test with ACHN, with BT-549 and with RPMI-8226 was > 100 µM (inactive) throughout.
As for `N=c1oc2cc(O)ccc2cc1C(=O)NCc1ccccc1`, the GI50 is 31.8 µM (inactive) with A549; 23.7 µM (inactive) with SNB-19; 31.6 µM (inactive) in the test with OVCAR-4; 27.4 µM (inactive) in the test with OVCAR-8; 27.6 µM (inactive) in the test with SK-MEL-28; 12.4 µM (inactive) in the test on COLO 205. The GI50 in the test with MDA-N was 19.3 µM (inactive); in the test with MOLT-4 it was 15.7 µM (inactive); in the test with SN12C it was 19.5 µM (inactive); in the test with NCI-H460 it was 25.8 µM (inactive); in the test with U-251 it was 18.7 µM (inactive); in the test with SF-268 it was 23.1 µM (inactive). The GI50 in the test on M14 was 34.7 µM (inactive); with PC-3, 28.4 µM (inactive); in the test with LOX IMVI it was 29.5 µM (inactive); with ACHN, 14.5 µM (inactive); in the test with UACC-257 it was 44.7 µM (inactive); in the test on BT-549, 17.3 µM (inactive). The GI50 in the test on RPMI-8226 was 10.7 µM (inactive).
Consider `Cc1cccc(/C=N/NC(=S)Nc2ccc(Cl)cc2)n1`, for which the GI50 was 1.93 µM (inactive) with A549; 2.31 µM (inactive) with SNB-19; 4.78 µM (inactive) in the test on OVCAR-4; 3.74 µM (inactive) in the test on OVCAR-8; 3.39 µM (inactive) in the test with SK-MEL-28; 0.658 µM (active) in the test with COLO 205. In addition, the GI50 in the test with MDA-N was 0.308 µM (active); in the test on MOLT-4, 1.17 µM (inactive); in the test on SN12C, 3.4 µM (inactive); with NCI-H460 it was 0.635 µM (active); in the test with U-251 it was 2.19 µM (inactive); in the test with SF-268 it was 2.61 µM (inactive). For the same molecule, the GI50 in the test on M14 was 1.08 µM (active); in the test with PC-3, 1.94 µM (inactive); in the test with LOX IMVI, 1.04 µM (active); in the test with ACHN it was 1.12 µM (active); in the test on UACC-257, 3.13 µM (inactive); in the test with BT-549, 7.14 µM (inactive). In the test with RPMI-8226, the GI50 is 1.14 µM (inactive).

Source of the values: ChEMBL document CHEMBL1201862, “PubChem BioAssay data set” (2004).
